pIC50: −log10 of the molar value.

Chain of SIK2 (Q9H0K1 whole entry, species assumed): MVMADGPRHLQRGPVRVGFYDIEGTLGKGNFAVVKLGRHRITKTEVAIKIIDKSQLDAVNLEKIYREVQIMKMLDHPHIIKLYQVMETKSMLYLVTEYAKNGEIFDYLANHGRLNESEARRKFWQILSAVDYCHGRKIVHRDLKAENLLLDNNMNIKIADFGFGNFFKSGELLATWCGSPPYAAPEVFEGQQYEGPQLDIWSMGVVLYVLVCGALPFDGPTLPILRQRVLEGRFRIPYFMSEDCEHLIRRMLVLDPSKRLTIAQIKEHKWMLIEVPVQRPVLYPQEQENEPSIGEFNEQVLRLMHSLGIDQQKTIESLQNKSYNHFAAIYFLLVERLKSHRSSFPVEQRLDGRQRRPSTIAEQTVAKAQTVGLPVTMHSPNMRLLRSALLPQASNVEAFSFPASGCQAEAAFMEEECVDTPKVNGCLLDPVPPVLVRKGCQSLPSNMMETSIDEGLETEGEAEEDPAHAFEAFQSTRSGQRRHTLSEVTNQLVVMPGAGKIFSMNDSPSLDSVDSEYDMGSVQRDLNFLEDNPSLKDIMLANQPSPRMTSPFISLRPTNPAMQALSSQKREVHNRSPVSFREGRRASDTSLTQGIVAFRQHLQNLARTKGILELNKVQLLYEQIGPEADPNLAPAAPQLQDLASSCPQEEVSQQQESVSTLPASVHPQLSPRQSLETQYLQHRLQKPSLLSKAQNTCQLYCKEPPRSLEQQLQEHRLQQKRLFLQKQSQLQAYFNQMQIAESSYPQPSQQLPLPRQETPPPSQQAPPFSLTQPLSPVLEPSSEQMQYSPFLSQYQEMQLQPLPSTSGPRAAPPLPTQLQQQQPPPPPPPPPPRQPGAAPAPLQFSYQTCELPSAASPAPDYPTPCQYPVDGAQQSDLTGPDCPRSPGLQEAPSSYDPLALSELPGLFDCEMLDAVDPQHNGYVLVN

One test addresses SIK2 (Homo sapiens, UniProt Q9H0K1). The experiment in a line: SIK2 Enzymatic Assay High Version 2 (High ATP). Format: biochemical.
Details: not given
In short, it runs like this:
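At room temperature, enzyme (6 nM, 2× final) was preincubated with compound for 30 min, then 6 mM ATP and 400 μM HDAC5tide (both 2× final) were added for 2 h. ADP formed was measured by ADP-Glo Max (2 h reagent, 1 h detection) using luminescence.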
The molecule `Cc1cc(-c2ccn3nc(Nc4ccc(F)cn4)cc3c2)c(O[C@H]2C[C@H]3COC[C@@H](C2)N3)cn1` [Example 127, 5-(5-(((1R,5S,7s)-3-oxa-9-azabicyclo[3.3.1]nonan-7-yl)oxy)-2-methylpyridin-4-yl)-N-(5-fluoropyridin-2-yl)pyrazolo[1,5-a]pyridin-2-amine] showed a pIC50 greater than 9.07.

On to `CNC(=O)c1cccc(Nc2cc3cc(-c4cc(C)ncc4O[C@H]4C[C@H]5COC[C@@H](C4)N5)ccn3n2)n1` [Example 367, N-methyl-6-[[5-[2-methyl-5-[[(1S,5R,7s)-3-oxa-9-azabicyclo[3.3.1]nonan-7-yl]oxy]-4-pyridyl]pyrazolo[1,5-a]pyridin-2-yl]amino]pyridine-2-carboxamide], for which the pIC50 was 8.17. Consider `CNC(=O)c1ccnc(Nc2cc3cc(-c4cc(C)ncc4O[C@H]4C[C@H]5COC[C@@H](C4)N5)ccn3n2)c1` [Example 172, 2-((5-(5-(((1R,5S,7s)-3-oxa-9-azabicyclo[3.3.1]nonan-7-yl)oxy)-2-methylpyridin-4-yl)pyrazolo[1,5-a]pyridin-2-yl)amino)-N-methylisonicotinamide], for which the pIC50 is 9.06.

For `Cc1cc(-c2ccn3nc(Nc4cnn(C(F)F)c4)cc3c2)c(O[C@H]2C[C@H]3COC[C@@H](C2)N3C)cn1` [Example 116, N-(1-(difluoromethyl)-1H-pyrazol-4-yl)-5-(2-methyl-5-(((1R,5S,7s)-9-methyl-3-oxa-9-azabicyclo[3.3.1]nonan-7-yl)oxy)pyridin-4-yl)pyrazolo[1,5-a]pyridin-2-amine], the pIC50 is greater than 9.07. On the same count and under the same terms, then `Cc1cc(-c2ccn3nc(Nc4cc(C)nc(C)n4)cc3c2)c(O[C@@H]2[C@@H]3CO[C@H]2CN3)cn1` [Example 524, N-(2,6-dimethylpyrimidin-4-yl)-5-[2-methyl-5-[[(1S,4S,7R)-2-oxa-5-azabicyclo[2.2.1]heptan-7-yl]oxy]-4-pyridyl]pyrazolo[1,5-a]pyridin-2-amine], with 7.69; and `Cc1cnc(Nc2cc3cc(-c4cc(C)ncc4O[C@H]4C[C@H]5COC[C@@H](C4)N5)ccn3n2)nc1` [Example 391, 5-(5-(((1R,5S,7s)-3-oxa-9-azabicyclo[3.3.1]nonan-7-yl)oxy)-2-methylpyridin-4-yl)-N-(5-methylpyrimidin-2-yl)pyrazolo[1,5-a]pyridin-2-amine], with greater than 9.07; and `[2H]C([2H])([2H])N1CC[C@@H]1COc1cnc(C)cc1-c1ccn2nc(NC(=O)C3CC3)cc2c1` [Example 576, N-[5-[2-methyl-5-[[(2R)-1-(trideuteriomethyl)azetidin-2-yl]methoxy]-4-pyridyl]pyrazolo[1,5-a]pyridin-2-yl]cyclopropanecarboxamide], with 7.14. Regarding `Cc1cc(-c2ccn3nc(Nc4ccnc(C)n4)cc3c2)c(O[C@H]2C[C@H]3COC[C@@H](C2)N3S(C)(=O)=O)cn1` [Example 630], the pIC50 was 5.93.

Molecule `CN1[C@@H]2COC[C@H]1C[C@@H](Oc1ccc(C(F)F)cc1-c1ccn3nc(NC(=O)C4CC4)cc3c1)C2` [Example 482, N-[5-[5-(difluoromethyl)-2-[[(1R,5S)-9-methyl-3-oxa-9-azabicyclo[3.3.1]nonan-7-yl]oxy]phenyl]pyrazolo[1,5-a]pyridin-2-yl]cyclopropanecarboxamide] gave a pIC50 of 8.37.

In turn, `Cc1cc(-c2ccn3nc(Nc4ccc(=O)n(C)n4)cc3c2)c(O[C@H]2C[C@H]3COC[C@@H](C2)N3)cn1` [Example 401, 2-methyl-6-[[5-[2-methyl-5-[[(1S,5R,7s)-3-oxa-9-azabicyclo[3.3.1]nonan-7-yl]oxy]-4-pyridyl]pyrazolo[1,5-a]pyridin-2-yl]amino]pyridazin-3-one] showed a pIC50 of 7.79.

The test is the same for the next values; noted with them: enzyme 6 nM, 6 mM ATP and 400 μM HDAC5tide (each 2× final concentration); 30 minutes pre-incubation, 2 hours; ADP-Glo Max luminescence; read-out: SIK2 high ATP IC50 (μM) (Test Example 2).
For `Cc1cc(-c2ccn3nc(Nc4cc(C)nc(C)n4)cc3c2)c(O[C@H]2COC[C@H]2C)cn1` (single isomer, unassigned) [Example 534, (3*R, 4*R)—N-(2,6-dimethylpyrimidin-4-yl)-5-[2-methyl-5-(4-methyltetrahydrofuran-3-yl)oxy-4-pyridyl]pyrazolo[1,5-a]pyridin-2-amine], the IC50 is 0.0145 µM. Regarding `Cc1cc(-c2ccn3nc(Nc4cncc(C)n4)cc3c2)c(OC[C@H]2OCC[C@@H]2O)cn1` [Example 297, (2R,3S)-2-[[6-methyl-4-[2-[(6-methylpyrazin-2-yl)amino]pyrazolo[1,5-a]pyridin-5-yl]-3-pyridyl]oxymethyl]tetrahydrofuran-3-ol], the IC50 stood at 0.00781 µM. Take `COc1cc(Nc2cc3cc(-c4cc(C)ncc4O[C@H]4CC[C@H](O)CC4)ccn3n2)cc(OC)c1C(=O)N(C)C` [Example 332, 4-[[5-[5-(4-hydroxycyclohexoxy)-2-methyl-4-pyridyl]pyrazolo[1,5-a]pyridin-2-yl]amino]-2,6-dimethoxy-N,N-dimethyl-benzamide]: the IC50 was 0.015 µM. Regarding `Cc1cc(-c2ccn3nc(Nc4cc(C(F)(F)F)c(C(=O)NC(C)C)cn4)cc3c2)c(OCC(C)(C)O)cn1` [Example 650, 6-[[5-[5-(2-hydroxy-2-methyl-propoxy)-2-methyl-4-pyridyl]pyrazolo[1,5-a]pyridin-2-yl]amino]-N-isopropyl-4-(trifluoromethyl)pyridine-3-carboxamide], the IC50 was found to be 0.0868 µM.

Regarding `Cc1cc(-c2ccn3nc(NC(=O)C4CC4)cc3c2)c(OCC2(F)CCN(C)C2)cn1` (single isomer, unassigned) [Example 449, *R—N-[5-[5-[(3-fluoro-1-methyl-pyrrolidin-3-yl)methoxy]-2-methyl-4-pyridyl]pyrazolo[1,5-a]pyridin-2-yl]cyclopropanecarboxamide], the IC50 was 0.0472 µM. As for `Cc1cc(-c2ccn3nc(Nc4cc(C)nc(C)n4)cc3c2)c(OC[C@]2(C)CCOC2)cn1` (single isomer, unassigned) [Example 535, (*R)—N-(2,6-dimethylpyrimidin-4-yl)-5-[2-methyl-5-[(3-methyltetrahydrofuran-3-yl)methoxy]-4-pyridyl]pyrazolo[1,5-a]pyridin-2-amine], the IC50 was 0.0107 µM. Regarding `CC(C)(C#N)COc1cnc(OC(F)F)cc1-c1ccn2nc(Nc3cc4c(cn3)CCNC4)cc2c1` [Example 718, 3-[[6-(difluoromethoxy)-4-[2-(5,6,7,8-tetrahydro-2,6-naphthyridin-3-ylamino)pyrazolo[1,5-a]pyridin-5-yl]-3-pyridyl]oxy]-2,2-dimethyl-propanenitrile], the IC50 was 0.0182 µM. `Cc1cc(-c2ccn3nc(NC(=O)C4CC4)cc3c2)c(OCC(C)(O)C2CC2)cn1` (single isomer, unassigned) [Example 603, (*S)—N-[5-[5-(2-cyclopropyl-2-hydroxy-propoxy)-2-methyl-4-pyridyl]pyrazolo[1,5-a]pyridin-2-yl]cyclopropanecarboxamide]: the IC50 was determined as 0.202 µM.

`Cc1cc(-c2ccn3nc(Nc4ccc(S(=O)(=O)NC5CC5)cc4)cc3c2)c(O[C@H]2CC[C@H](O)CC2)cn1` [Example 323, N-cyclopropyl-4-[[5-[5-(4-hydroxycyclohexoxy)-2-methyl-4-pyridyl]pyrazolo[1,5-a]pyridin-2-yl]amino]benzenesulfonamide]: the concentration for half-maximal inhibition (IC50) is 0.0273 µM.

As to `Cc1cc(-c2ccn3nc(Nc4cccnc4)cc3c2)c(OC[C@@H]2CNCCO2)cn1` [Example 131, 5-[2-methyl-5-[[(2S)-morpholin-2-yl]methoxy]-4-pyridyl]-N-(3-pyridyl)pyrazolo[1,5-a]pyridin-2-amine], the IC50 is 0.0524 µM. The same measure, in the same setting: under `Cc1cc(-c2ccn3nc(Nc4cc(C)nc(C)n4)cc3c2)c(OC[C@H]2CCS(=O)(=O)C2)cn1` (single isomer, unassigned) [Example 363, (*R)—N-(2,6-dimethylpyrimidin-4-yl)-5-[5-[(1,1-dioxothiolan-3-yl)methoxy]-2-methyl-4-pyridyl]pyrazolo[1,5-a]pyridin-2-amine] stands 0.0035 µM; under `Cc1cc(-c2ccn3nc(Nc4cc(C)nc(C)n4)cc3c2)c(O[C@H]2COC(C)(C)C2)cn1` (single isomer, unassigned) [Example 577, (*R)—N-(2,6-dimethylpyrimidin-4-yl)-5-[5-(5,5-dimethyltetrahydrofuran-3-yl)oxy-2-methyl-4-pyridyl]pyrazolo[1,5-a]pyridin-2-amine], 0.0724 µM. On the same count and under the same terms, then `CO[C@H]1CN(C)C[C@@H]1COc1cnc(C)cc1-c1ccn2nc(NC(=O)C3CC3)cc2c1` (racemic) [Example 571, (3RS, 4RS)—N-[5-[5-[(4-methoxy-1-methyl-pyrrolidin-3-yl)methoxy]-2-methyl-4-pyridyl]pyrazolo[1,5-a]pyridin-2-yl]cyclopropanecarboxamide], with 0.165 µM; and `Cc1cc(Nc2cc3cc(-c4cc(OC(F)F)ncc4OC[C@H]4CC(=O)NC4(C)C)ccn3n2)nc(C)n1` (single isomer, unassigned) [Example 739, (*S)-4-[[6-(difluoromethoxy)-4-[2-[(2,6-dimethylpyrimidin-4-yl)amino]pyrazolo[1,5-a]pyridin-5-yl]-3-pyridyl]oxymethyl]-5,5-dimethyl-pyrrolidin-2-one], with 0.00119 µM; and `Cc1cc(-c2ccn3nc(Nc4nn(C)c5ccccc45)cc3c2)c(OC[C@H]2OCC[C@@H]2O)cn1` [Example 299, (2R,3S)-2-[[6-methyl-4-[2-[(1-methylindazol-3-yl)amino]pyrazolo[1,5-a]pyridin-5-yl]-3-pyridyl]oxymethyl]tetrahydrofuran-3-ol], with 0.00675 µM. As for `Cc1cc(-c2ccn3nc(Nc4cc(C)nc(C)n4)cc3c2)c(OC[C@@H]2C[C@H](O)CO2)cn1` [Example 606, (3S,5S)-5-[[4-[2-[(2,6-dimethylpyrimidin-4-yl)amino]pyrazolo[1,5-a]pyridin-5-yl]-6-methyl-3-pyridyl]oxymethyl]tetrahydrofuran-3-ol], the IC50 was 0.1 µM. As to `Cc1cc(-c2ccn3nc(Nc4cc(C)nc(C(C)(C)C)n4)cc3c2)c(OC[C@H]2OCC[C@@H]2O)cn1` [Example 298, (2R,3S)-2-[[4-[2-[(2-tert-butyl-6-methyl-pyrimidin-4-yl)amino]pyrazolo[1,5-a]pyridin-5-yl]-6-methyl-3-pyridyl]oxymethyl]tetrahydrofuran-3-ol], the IC50 was found to be 0.00667 µM.

Usually pIC50 stands for −log10 of the IC50, conventionally taken in molar units. In general, IC50 refers to the point on the concentration scale where inhibition reaches its midpoint.

Source of the values: US20240158392A1 (Janssen Biotech, Inc., priority 2021, published 2024).
